Test system: LNC
Assay: LNC proliferative response to overlapping peptides of HSP60
Assay type: cell-based, Lewis rats
Conditions: day 26 after AA induction, SI±SEM, SI<2 considered not significant
Description: T-cell proliferation assays were performed at day 26 after the induction of AA, when the disease is at its peak, as previously described (Quintana et al., 2002). Briefly, popliteal and inguinal lymph node cells (LNC), were cultured in quadruplicates in 200 μl round bottom microtiter wells (Costar Corp., Cambridge, USA) at 2×10^5 cells per well with or without antigen. The T-cell mitogen Concanavalin A (Con A) was used as a positive control for T-cell proliferation. Cultures were incubated for 96 hr at 37° C. in a humidified atmosphere of 5% CO2. T-cell responses were detected by the incorporation of [methyl-3H]-thymidine (Amersham, Buckinghamshire, UK; 1 μCi/well), which was added to the wells for the last 18 hr. The stimulation index (SI) was computed as the ratio of the mean c.p.m. of antigen- or mitogen-containing wells to control wells cultured with medium alone. The results of T-cell proliferation experiments are shown as SI±SEM, T-cell responses with SI<2 were considered not significant.
It was previously reported that the suppression of AA by pHSP60 DNA vaccination was associated with T-cell reactivity to a single HSP60 peptide epitope, Hu3 (Quintana et al., 2003). […]

In the case of “KFGADARALMLQGVDLLADA (human hsp60 epitope) [Hu3]”, the “Stimulation Index (SI)” value (LNC from pHSP70-vaccinated rats) is reported as “did not respond” and the “Stimulation Index (SI)” value (LNC from pcDNA3-vaccinated rats) is reported as “did not respond”.

Reference: patent US20090202618A1, “Dna vaccines encoding hsp60 peptide fragments for treating autoimmune diseases” (Yeda Research & Development Co. Ltd, priority 2003, published 2009)
